Experimental data from US12568967B2, “Compositions comprising pyridine carboxylate herbicides with synthetic auxin herbicides or auxin transport inhibitors” (priority 2018, dated 2026).
Like-named read-outs stand apart in the source and are kept apart here.

Assays:
[1] = system: Brassica napus (winter rape, BRSNW); test: Greenhouse postemergence trial BRSNW; format: in vivo
[2] = system: Polygonum convolvulus (wild buckwheat, POLCO); test: Greenhouse postemergence trial POLCO; format: in vivo
[3] = system: Cirsium arvense (Canadian thistle, CIRAR); test: Greenhouse postemergence trial CIRAR; format: in vivo
Procedure: (§1) Seeds of the desired test plant species were planted in a 90:10% v/v (volume/volume) mixture of PRO-MIX® BX (Premier Tech Horticulture, Quakertown, PA, USA) and PROFILE® GREENS GRADE™ (Profile Products LLC, Buffalo Grove, IL, USA) planting mixture, which typically has a pH of 5.2 to 6.2 and an organic matter content of at least 50 percent, in plastic pots with a surface area of 103.2 square centimeters (cm^2). […] The plants were grown for 7-36 days (d) in a greenhouse with an approximate 14-hour (h) photo-period which was maintained at about 23° C. during the day and 22° C. during the night. Nutrients and water were added on a regular basis and supplemental lighting was provided with overhead metal halide 1000-Watt lamps as necessary. The plants were employed for testing when they reached the second or third true leaf stage.
(§2) Emulsifiable concentrates of each of each pyridine carboxylate herbicide (Compound A or Compound B) were prepared at 100 grams acid equivalent per liter (g ae/L). The emulsifiable concentrates also included a safener, cloquintocet-mexyl, at 120 grams active ingredient per liter (g ai/L), unless otherwise noted below. An aliquot of each emulsifiable concentrate was placed in a 25 mL glass vial and diluted with an aqueous mixture of 1.25% (v/v) ACTIROB® B esterified rapeseed oil (Bayer Crop Science, Research Triangle Park, NC, USA) or MSO® Concentrate with LECI-TECH® methylated soybean oil (Loveland Products, Loveland, CO, USA) to obtain concentrated stock solutions at the highest application rate for each herbicide, based upon a 12 milliliter (mL) application volume at a rate of 187 liters per hectare (L/ha). The concentrated stock solutions were further diluted with an aqueous mixture of 1.25% v/v ACTIROB® B or MSO® Concentrate with LECI-TECH® to obtain stock solutions at reduced application rates for each herbicide. Spray solutions of the herbicide combinations (Compound A or Compound B plus synthetic auxin herbicide or auxin transport inhibitor) were prepared by adding weighed amounts or aliquots of the synthetic auxin herbicide or auxin transport inhibitor to the stock solutions of Compound A or Compound B to form 12-mL spray solutions in two-way combinations.
(§3) The spray solutions were applied to the plant material with an overhead Mandel track sprayer equipped with 8002E nozzles calibrated to deliver 187 L/ha over an application area of 0.503 square meters (m^2) at a spray height of 18 inches (43 centimeters (cm)) above the average plant canopy. Control plants were sprayed in the same manner with the solvent blank. All pyridine carboxylate herbicide (component a) application rates are given as “g ae/ha” and all synthetic auxin herbicide or auxin transport inhibitor (component b) application rates are given as “g ai/ha.”
(§4) The treated plants and control plants were placed in a greenhouse as described above and watered by sub-irrigation to prevent wash-off of the test compounds. After 20-22 d, the condition of the test plants as compared with that of the control plants was determined visually and scored on a scale of 0 to 100 percent where 0 corresponds to no injury and 100 corresponds to complete kill.

[4] = system: Sinapis arvensis (wild mustard, SINAR); test: Greenhouse postemergence trial SINAR; format: in vivo
[5] = system: Salsola kali (Russian thistle, SASKR); test: Greenhouse postemergence trial SASKR; format: in vivo;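 also: greenhouse plants sprayed at second or third true leaf stage, injury rated by eye after 20-22 d against solvent-blank controls, 0 meaning no injury, 100 complete kill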
[6] = system: Kochia scoparia (kochia, KCHSC); test: Greenhouse postemergence trial KCHSC; format: in vivo
[7] = system: Matricaria chamomilla (wild chamomile, MATCH); test: Greenhouse postemergence trial MATCH; format: in vivo;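 also: greenhouse plants sprayed at second to third true leaf stage, injury rated by eye 20-22 d later versus solvent-blank controls on 0–100 scale, 0 no injury, 100 complete kill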
Procedure: (§5) The plants were grown for 7-36 days (d) in a greenhouse with an approximate 14-hour (h) photo-period which was maintained at about 23° C. during the day and 22° C. during the night. Nutrients and water were added on a regular basis and supplemental lighting was provided with overhead metal halide 1000-Watt lamps as necessary. The plants were employed for testing when they reached the second or third true leaf stage.
(§6) The emulsifiable concentrates also included a safener, cloquintocet-mexyl, at 120 grams active ingredient per liter (g ai/L), unless otherwise noted below.
(§7) Control plants were sprayed in the same manner with the solvent blank. All pyridine carboxylate herbicide (component a) application rates are given as “g ae/ha” and all synthetic auxin herbicide or auxin transport inhibitor (component b) application rates are given as “g ai/ha.”
as §4

[8] = system: Triticum aestivum (spring wheat, TRZAS); format: in vivo; details: for % visual injury (Obs) / % visual injury Obs: TRZAS
[9] = system: Hordeum vulgare (spring barley, HORVS); format: in vivo; details: for % visual injury (Obs) / % visual injury Obs: HORVS
[10] = system: Cyanus segetum (cornflower, CENCY); test: Greenhouse postemergence trial CENCY; format: in vivo
[11] = system: Viola arvensis (field violet, VIOAR); test: Greenhouse postemergence trial VIOAR; format: in vivo
Procedure: as §1, §2, §3, §4

[12] = system: Veronica hederifolia (ivyleaf speedwell, VERHE); test: Greenhouse postemergence trial VERHE; format: in vivo
[13] = system: Papaver rhoeas (corn poppy, PAPRH); test: Greenhouse postemergence trial PAPRH; format: in vivo
[14] = system: Veronica persica (bird's-eye speedwell, VERPE); test: Greenhouse postemergence trial VERPE; format: in vivo
[15] = system: Papaver rhoeas (corn poppy), herbicide-resistant (PAPRH-R); test: Greenhouse postemergence trial PAPRH-R; format: in vivo
[16] = system: Capsella bursa-pastoris (shepherd's purse, CAPBP); test: Greenhouse postemergence trial CAPBP; format: in vivo
[17] = system: Stellaria media (chickweed, STEME); test: Greenhouse postemergence trial STEME; format: in vivo
[18] = system: Anthemis arvensis (field chamomile, ANTAR); test: Greenhouse postemergence trial ANTAR; format: in vivo
Procedure: as §1, §2, §3, §4

[19] = system: Matricaria discoidea (pineapple weed, MATMT); test: Greenhouse postemergence trial MATMT; format: in vivo
[20] = system: Matricaria inodora (false chamomile, MATIN); test: Greenhouse postemergence trial MATIN; format: in vivo
[21] = system: Triticum aestivum (winter wheat, TRZAW); test: Greenhouse postemergence crop phytotoxicity TRZAW; format: in vivo; details: TRZAW
Procedure: as §1, §2, §3, §4

[22] = system: Hordeum vulgare (winter barley, HORVW); test: Greenhouse postemergence crop phytotoxicity HORVW; format: in vivo; details: HORVW
[23] = system: Brassica napus (spring rape, BRSNN); test: Greenhouse postemergence trial BRSNN; format: in vivo; details: for % visual injury (Obs): BRSNN
[24] = system: Lamium purpureum (purple deadnettle, LAMPU); test: Greenhouse postemergence trial LAMPU
[25] = system: Viola tricolor (wild pansy, VIOTR); test: Greenhouse postemergence trial VIOTR;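 also: greenhouse plants sprayed at second to third true leaf stage, injury rated visually after 20-22 d against solvent-blank sprayed controls, 0 meaning no injury and 100 complete kill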
[26] = system: Chenopodium album L. (common lambsquarters, CHEAL); test: Greenhouse postemergence trial CHEAL; format: in vivo;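 also: greenhouse plants sprayed at second to third true leaf stage, injury rated by eye after 20-22 d versus solvent-blank sprayed controls, 0 = no injury, 100 = complete kill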
Procedure: as §5, §6, §7, §4

[27] = system: Amaranthus retroflexus (pigweed, AMARE); test: Greenhouse postemergence trial AMARE; format: in vivo;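 also: Greenhouse-grown plants sprayed at second to third true leaf stage, injury rated by eye after 20-22 d versus solvent-blank sprayed controls, 0 = no injury, 100 = complete kill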
Procedure: as §5, §6, §7, §4

[28] = Lamium purpureum, post-emergence, read-out: % visual injury Obs
[29] = Viola tricolor, post-emergence, read-out: % visual injury Obs
[30] = Papaver rhoeas, post-emergence, read-out: % visual injury Obs

Compound: Nc1nc(C2CC2)nc(C(=O)O)c1Cl [Aminocyclopyrachlor]
- % visual injury Obs ([1]; BRSNW, alone, 50 g/ha): 50%
- % visual injury Obs ([2]; POLCO, alone, 50 g/ha): 70%
- % visual injury Obs ([3]; CIRAR, alone, 50 g/ha): 85%
- % visual injury Obs ([4]; SINAR, alone, 50 g/ha): 50%
- % visual injury Obs ([5]; SASKR, alone, 50 g/ha): 75%
- % visual injury (Obs) ([6]; KCHSC, alone 25 g/ha): 78%
- % visual injury Obs ([6]; KCHSC, alone, 50 g/ha): 100%
- % visual injury Obs ([7]; MATCH, alone, 50 g/ha): 60%
- % visual injury (Obs) ([8]; alone 25 g/ha): 43%
- % visual injury Obs ([8]; alone, 50 g/ha): 0%
- % visual injury (Obs) ([9]; alone 25 g/ha): 20%
- % visual injury Obs ([9]; alone, 50 g/ha): 0%
- % visual injury Obs ([10]; CENCY, alone, 50 g/ha): 100%
- % visual injury Obs ([11]; VIOAR, alone, 50 g/ha): 25%
- % visual injury Obs ([12]; VERHE, alone, 50 g/ha): 60%
- % visual injury Obs ([13]; PAPRH, alone, 50 g/ha): 75%
- % visual injury Obs ([14]; VERPE, alone, 50 g/ha): 65%
- % visual injury Obs ([15]; PAPRH-R, alone, 50 g/ha): 60%
- % visual injury Obs ([16]; CAPBP, alone, 50 g/ha): 70%
- % visual injury Obs ([17]; STEME, alone, 50 g/ha): 30%
- % visual injury Obs ([18]; ANTAR, alone, 50 g/ha): 100%
- % visual injury Obs ([19]; MATMT, alone, 50 g/ha): 50%
- % visual injury Obs ([20]; MATIN, alone, 50 g/ha): 85%
- % visual injury Obs ([21]; alone, 50 g/ha): 0%
- % visual injury Obs ([22]; alone, 50 g/ha): 0%
- % visual injury (Obs) ([23]; alone 25 g/ha): 30%
- % visual injury Obs ([24]; LAMPU, alone, 50 g/ha): 65%
- % visual injury (Obs) ([25]; VIOTR, alone 25 g/ha): 45%
- % visual injury Obs ([25]; VIOTR, alone, 50 g/ha): 30%

Compound: Nc1c(Cl)c(Cl)nc(C(=O)O)c1Cl [Picloram]
- plant injury at 20 g/ha ([1]; Brassica napus, post-emergence, BRSNW, Picloram 20 g/ha, read-out: % visual injury Obs): 10%
- pest or weed control at 20 g/ha ([2]; Fallopia convolvulus, post-emergence, POLCO, Picloram 20 g/ha, read-out: % visual injury Obs): 40%
- pest or weed control at 20 g/ha ([3]; Cirsium arvense, post-emergence, CIRAR, Picloram 20 g/ha, read-out: % visual injury Obs): 60%
- pest or weed control at 20 g/ha ([4]; Mutarda arvensis, post-emergence, SINAR, Picloram 20 g/ha, read-out: % visual injury Obs): 30%
- pest or weed control at 20 g/ha ([5]; Salsola kali, post-emergence, SASKR, Picloram 20 g/ha, read-out: % visual injury Obs): 30%
- pest or weed control at 20 g/ha ([6]; Bassia scoparia, post-emergence, KCHSC, Picloram 20 g/ha, read-out: % visual injury Obs): 10%
- % visual injury (Obs) ([6]; KCHSC, alone 10 g/ha): 10%
- pest or weed control at 20 g/ha ([7]; Matricaria chamomilla, post-emergence, MATCH, Picloram 20 g/ha, read-out: % visual injury Obs): 40%
- % visual injury Obs ([8]; Picloram 20 g/ha): 0%
- % visual injury (Obs) ([8]; alone 10 g/ha): 0%
- % visual injury Obs ([9]; Picloram 20 g/ha): 0%
- % visual injury (Obs) ([9]; alone 10 g/ha): 0%
- pest or weed control at 20 g/ha ([10]; Centaurea cyanus, post-emergence, CENCY, Picloram 20 g/ha, read-out: % visual injury Obs): 60%
- pest or weed control at 20 g/ha ([11]; Viola arvensis, post-emergence, VIOAR, Picloram 20 g/ha, read-out: % visual injury Obs): 10%
- pest or weed control at 20 g/ha ([12]; Veronica hederifolia, post-emergence, VERHE, Picloram 20 g/ha, read-out: % visual injury Obs): 10%
- pest or weed control at 20 g/ha ([13]; Papaver rhoeas, post-emergence, PAPRH, Picloram 20 g/ha, read-out: % visual injury Obs): 20%
- pest or weed control at 20 g/ha ([14]; Veronica persica, post-emergence, VERPE, Picloram 20 g/ha, read-out: % visual injury Obs): 10%
- pest or weed control at 20 g/ha ([15]; Papaver rhoeas, post-emergence, PAPRH-R, Picloram 20 g/ha, read-out: % visual injury Obs): 30%
- % visual injury (Obs) ([16]; CAPBP, alone 10 g/ha): 10%
- pest or weed control at 20 g/ha ([16]; Capsella bursa-pastoris, post-emergence, CAPBP, Picloram 20 g/ha, read-out: % visual injury Obs): 0%
- pest or weed control at 20 g/ha ([17]; Stellaria media, post-emergence, STEME, Picloram 20 g/ha, read-out: % visual injury Obs): 10%
- pest or weed control at 20 g/ha ([18]; Anthemis arvensis, post-emergence, ANTAR, Picloram 20 g/ha, read-out: % visual injury Obs): 30%
- pest or weed control at 20 g/ha ([19]; Matricaria discoidea, post-emergence, MATMT, Picloram 20 g/ha, read-out: % visual injury Obs): 10%
- % visual injury (Obs) ([20]; MATIN, alone 10 g/ha): 10%
- pest or weed control at 20 g/ha ([20]; Tripleurospermum inodorum, post-emergence, MATIN, Picloram 20 g/ha, read-out: % visual injury Obs): 30%
- % visual injury Obs ([21]; Picloram 20 g/ha): 0%
- % visual injury Obs ([22]; Picloram 20 g/ha): 0%
- % visual injury (Obs) ([23]; alone 10 g/ha): 8%
- % visual injury (Obs) ([24]; LAMPU, alone 10 g/ha): 10%
- pest or weed control at 20 g/ha [24, 28]: 5%
- % visual injury (Obs) ([25]; VIOTR, alone, 10 g/ha): 10%
- pest or weed control at 20 g/ha [25, 29]: 10%

Compound: COC(=O)C1(O)c2ccccc2-c2ccc(Cl)cc21 (stereo not drawn) [Chlorflurenol-methyl]
- CIRAR Obs (% visual injury) ([3]; chlorflurenol-methyl 140 g/ha): 0%
- SINAR Obs (% visual injury) ([4]; chlorflurenol-methyl 140 g/ha): 18%
- SASKR Obs (% visual injury) ([5]; chlorflurenol-methyl 140 g/ha): 0%
- KCHSC Obs (% visual injury) ([6]; chlorflurenol-methyl 140 g/ha): 0%
- CHEAL Obs (% visual injury) ([26]; chlorflurenol-methyl 140 g/ha): 0%
- AMARE Obs (% visual injury) ([27]; chlorflurenol-methyl 140 g/ha): 0%
- MATCH Obs (% visual injury) ([7]; chlorflurenol-methyl 140 g/ha): 0%
- TRZAS Obs (% visual injury) ([8]; chlorflurenol-methyl 140 g/ha): 0%
- HORVS Obs (% visual injury) ([9]; chlorflurenol-methyl 140 g/ha): 0%
- BRSNN Obs (% visual injury) ([23]; chlorflurenol-methyl 140 g/ha): 23%

Compound: O=C(O)CCCOc1ccc(Cl)cc1Cl [2,4-DB]
- plant injury at 560 g/ha ([1]; Brassica napus, post-emergence, read-out: % visual injury Obs): 85%
- pest or weed control at 560 g/ha ([2]; Fallopia convolvulus, post-emergence, read-out: % visual injury Obs): 30%
- % visual injury (Obs) ([2]; POLCO, alone 280 g/ha): 13%
- % visual injury (Obs) ([3]; CIRAR, alone 280 g/ha): 15%
- pest or weed control ([3]; Cirsium arvense, post-emergence, CIRAR, alone, read-out: % visual injury Obs): 30%
- pest or weed control ([4]; Mutarda arvensis, post-emergence, SINAR, alone, read-out: % visual injury Obs): 50%
- % visual injury (Obs) ([4]; SINAR, alone 280 g/ha): 30%
- pest or weed control ([5]; Salsola kali, post-emergence, SASKR, alone, read-out: % visual injury Obs): 50%
- pest or weed control ([6]; Bassia scoparia, post-emergence, KCHSC, alone, read-out: % visual injury Obs): 30%
- % visual injury (Obs) ([6]; KCHSC, alone 280 g/ha): 3%
- % visual injury (Obs) ([26]; CHEAL, alone 280 g/ha): 43%
- % visual injury (Obs) ([27]; AMARE, alone 280 g/ha): 60%
- % visual injury (Obs) ([7]; MATCH, alone 280 g/ha): 5%
- pest or weed control ([7]; Matricaria chamomilla, post-emergence, MATCH, alone, read-out: % visual injury Obs): 10%
- % visual injury (Obs) ([8]; alone 280 g/ha): 0%
- % visual injury Obs ([8]; alone, 560 g/ha): 0%
- % visual injury (Obs) ([9]; alone 280 g/ha): 0%
- % visual injury Obs ([9]; alone, 560 g/ha): 0%
- pest or weed control at 560 g/ha ([10]; Centaurea cyanus, post-emergence, read-out: % visual injury Obs): 30%
- pest or weed control at 560 g/ha ([11]; Viola arvensis, post-emergence, read-out: % visual injury Obs): 30%
- pest or weed control at 560 g/ha ([12]; Veronica hederifolia, post-emergence, read-out: % visual injury Obs): 60%
- pest or weed control at 560 g/ha [13, 30]: 100%
- pest or weed control at 560 g/ha ([14]; Veronica persica, post-emergence, read-out: % visual injury Obs): 60%
- pest or weed control at 560 g/ha [15, 30]: 30%
- pest or weed control at 560 g/ha ([16]; Capsella bursa-pastoris, post-emergence, read-out: % visual injury Obs): 30%
- pest or weed control at 560 g/ha ([17]; Stellaria media, post-emergence, read-out: % visual injury Obs): 10%
- pest or weed control at 560 g/ha ([18]; Anthemis arvensis, post-emergence, read-out: % visual injury Obs): 10%
- pest or weed control at 560 g/ha ([19]; Matricaria discoidea, post-emergence, read-out: % visual injury Obs): 5%
- pest or weed control at 560 g/ha ([20]; Tripleurospermum inodorum, post-emergence, read-out: % visual injury Obs): 10%
- % visual injury Obs ([21]; alone, 560 g/ha): 0%
- % visual injury Obs ([22]; alone, 560 g/ha): 0%
- % visual injury (Obs) ([23]; alone 280 g/ha): 70%
- pest or weed control at 560 g/ha [24, 28]: 10%
- pest or weed control at 560 g/ha [25, 29]: 60%
